This experiment has as its target cAMP and cAMP-inhibited cGMP 3',5'-cyclic phosphodiesterase 10A (Homo sapiens, UniProt Q9Y233). Nature of the experiment: Florescence Polarization Assay: The activity of the compounds in accordance with the present invention as PDE10 inhibitors may be readily determined without undue experimentation using a fluorescence polarization (FP) methodology well known in the art (Huang, W., et al., J. Biomol Screen, 2002, 7: 215). […] PDE10A2 was amplified from human fetal brain cDNA (Clontech, Mountain View, Calif.) using a forward primer corresponding to nucleotides 56-77 of human PDE10A2 (Accession No. AF127480, Genbank Identifier 4894716), containing a Kozak consensus sequence. In general terms: Fluorescence polarisation rises when a labelled molecule tumbles more slowly, as on binding a larger partner.

Chain of cAMP and cAMP-inhibited cGMP 3',5'-cyclic phosphodiesterase 10A (Q9Y233 whole entry): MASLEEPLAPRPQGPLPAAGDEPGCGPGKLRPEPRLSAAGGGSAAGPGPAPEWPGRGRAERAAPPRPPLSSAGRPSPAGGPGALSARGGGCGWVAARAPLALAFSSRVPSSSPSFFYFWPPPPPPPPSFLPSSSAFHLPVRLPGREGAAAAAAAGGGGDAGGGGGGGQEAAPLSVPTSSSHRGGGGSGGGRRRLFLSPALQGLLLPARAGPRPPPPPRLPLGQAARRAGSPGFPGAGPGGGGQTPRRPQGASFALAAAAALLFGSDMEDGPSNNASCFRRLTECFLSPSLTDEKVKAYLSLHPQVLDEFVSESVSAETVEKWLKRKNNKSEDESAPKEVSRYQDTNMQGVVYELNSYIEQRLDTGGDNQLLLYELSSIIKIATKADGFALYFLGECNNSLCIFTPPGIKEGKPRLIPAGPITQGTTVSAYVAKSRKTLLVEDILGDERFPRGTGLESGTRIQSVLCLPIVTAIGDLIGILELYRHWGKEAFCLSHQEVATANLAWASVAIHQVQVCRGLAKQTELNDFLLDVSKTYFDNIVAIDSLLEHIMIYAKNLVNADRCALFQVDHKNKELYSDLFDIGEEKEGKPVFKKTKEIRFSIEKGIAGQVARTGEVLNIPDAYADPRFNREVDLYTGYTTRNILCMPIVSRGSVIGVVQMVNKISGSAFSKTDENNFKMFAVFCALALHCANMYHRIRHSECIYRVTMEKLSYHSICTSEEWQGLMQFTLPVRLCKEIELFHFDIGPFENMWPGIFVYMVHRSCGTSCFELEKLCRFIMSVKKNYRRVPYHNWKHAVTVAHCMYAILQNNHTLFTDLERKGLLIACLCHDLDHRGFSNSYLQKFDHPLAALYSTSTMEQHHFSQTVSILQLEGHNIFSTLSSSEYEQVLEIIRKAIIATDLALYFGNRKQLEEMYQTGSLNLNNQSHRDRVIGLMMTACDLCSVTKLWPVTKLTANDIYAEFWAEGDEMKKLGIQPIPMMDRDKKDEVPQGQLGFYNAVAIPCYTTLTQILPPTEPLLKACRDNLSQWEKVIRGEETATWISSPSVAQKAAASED

By Ki is commonly meant a dissociation constant, usually derived from enzyme kinetics or from competition with a known ligand. `COc1ccc(-n2c(CCN3C(=O)c4cccc(OCC(F)(F)F)c4C3=O)nc3ccccc3c2=O)cc1`: the Ki turned out to be 790 pM.

Values taken from ChEMBL document CHEMBL3638862, “Radiolabeled PDE10 inhibitors” (2014).
